Entries after “also recorded” stand apart in the source; their conditions may differ. Like-named read-outs stand apart in the source and are kept apart here.
Assays:
[1] = system: BHK-21 cells; details: for Cytotoxicity CC10 (maximum non-toxic concentration): hamster
[2] = system: FMDV serotype A (A/TAI/NP05/2017; NP05); format: cell-based, Foot-and-Mouth Disease Virus
[3] = in vitro; details: hamster
[4] = system: FMDV serotype A (A/TAI/NP05/2017; NP05); assay: microbe, parasite or virus in culture; details: Foot-and-mouth disease virus
[5] = system: FMDV serotype A (NP05); assay: microbe, parasite or virus in culture; format: cell-based, Foot-and-Mouth Disease Virus; details: for EC50: Foot-and-mouth disease virus, BHK-21, read-out: Antiviral Activity EC50, Normalized Delta Ct (RT-qPCR)
[6] = system: FMDV serotype A (NP05); assay: microbe, parasite or virus in culture; format: cell-based, Foot-and-Mouth Disease Virus; details: for EC50: BHK-21, 22 h, read-out: Antiviral Activity EC50, Viral Copy Number (RT-qPCR)
[7] = molecular target: FMDV 3C^pro (Foot-and-mouth disease virus serotype O, UniProt P03305); format: cell-based
FMDV 3C^pro, sequence (P03305 1650-1862 limits assumed): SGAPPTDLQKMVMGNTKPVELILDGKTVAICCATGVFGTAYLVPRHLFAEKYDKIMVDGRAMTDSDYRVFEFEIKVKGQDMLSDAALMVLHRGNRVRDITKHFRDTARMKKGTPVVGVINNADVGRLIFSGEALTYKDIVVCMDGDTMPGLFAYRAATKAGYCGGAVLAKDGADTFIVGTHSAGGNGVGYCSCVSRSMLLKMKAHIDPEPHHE

[8] = molecular target: FMDV 3D^pol (Foot-and-mouth disease virus serotype O, UniProt P03305); assay: cell-based; format: cell-based
FMDV 3D^pol, sequence (P03305 1863-2332 limits assumed): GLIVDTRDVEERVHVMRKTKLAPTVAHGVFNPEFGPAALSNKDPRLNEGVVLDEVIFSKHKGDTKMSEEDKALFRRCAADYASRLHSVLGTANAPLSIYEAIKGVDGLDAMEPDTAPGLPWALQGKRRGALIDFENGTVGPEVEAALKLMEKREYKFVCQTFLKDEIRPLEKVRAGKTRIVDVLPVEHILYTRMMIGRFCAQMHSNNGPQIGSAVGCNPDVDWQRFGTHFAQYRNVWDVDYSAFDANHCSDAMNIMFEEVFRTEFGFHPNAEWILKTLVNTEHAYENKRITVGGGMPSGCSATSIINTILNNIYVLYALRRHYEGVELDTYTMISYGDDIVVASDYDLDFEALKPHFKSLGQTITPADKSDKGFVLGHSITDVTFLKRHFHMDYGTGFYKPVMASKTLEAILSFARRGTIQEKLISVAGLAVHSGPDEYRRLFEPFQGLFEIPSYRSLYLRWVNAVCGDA

[9] = system: FMDV serotype A (A/TAI/NP05/2017; NP05); assay: in vitro; details: hamster
[10] = system: influenza virus neuraminidase; details: 5 µg/mL; cited from earlier work
[11] = system: influenza A (H1N1) virus; details: cited from earlier work
[12] = BHK-21, read-out: Antiviral Activity EC50, FMDV Specific-Positive Cell (IPMA)

| Compound | Toxicity to BHK-21 cells in words [1] | Cytotoxicity CC10 (maximum non-toxic concentration) [1] | Inhibition of FMDV infection / cytopathic effect, post-viral entry [2] | CC50 [3] | EC50 [4, 12] | EC50 [5] | EC50 ([6]; Foot-and-mouth disease virus) | further results |
| --- | --- | --- | --- | --- | --- | --- | --- | --- |
| COc1cc(C2OCC3C(c4cc(OC)c(OC5OC(CO)C(O)C(O)C5O)c(OC)c4)OCC23)cc(OC)c1OC1OC(CO)C(O)C(O)C1O (stereo not shown) [Eleutheroside E] | moderate cytotoxicity | 11.39 ± 1.05 µM | no potent effect | 20.8 ± 1.31 µM |  |  |  |  |
| NC(=O)c1ncn([C@@H]2O[C@H](CO)[C@@H](O)[C@H]2O)n1 [Ribavirin, reference compound] |  |  |  | ≥ 500 µM | 39.6 µM | 29.4 µM | 32.8 µM |  |
| Gomisin A |  |  | no potent effect |  |  |  |  |  |
| COc1cc([C@@H]2c3cc4c(cc3[C@H](O)[C@H]3COC(=O)[C@@H]23)OCO4)cc(OC)c1OC [Picropodophyllotoxin] | moderate cytotoxicity | 50.07 ± 1.70 µM |  | 136 ± 2.13 µM |  |  |  |  |
| c1cc2c(cc1[C@H]1OC[C@H]3[C@@H]1CO[C@H]3c1ccc3c(c1)OCO3)OCO2 [(-)-Asarinin] |  | 65.05 ± 1.81 µM | dose-dependent inhibition | 90.4 ± 1.95 µM | 15.1 µM | 31.7 µM | 36.7 µM | Toxicity to BHK-21 cells in words ([1]; at 100 µM): moderate cytotoxicity; Effect on FMDV 3C^pro activity [7]: Neither sesamin nor (-)-asarinin inhibited FMDV 3C^pro; also recorded: no activity observed; EC50 ([4]; BHK-21, read-out: Effect against FMDV infection (range of EC50 values)): 15.1 to 36.7 µM; Inhibition of negative-strand RNA production [5]: > 60%; Selective index SI, Normalized Delta Ct (RT-qPCR) [5]: 31.67 ± 1.50 (30.47 to 32.87) SI = 2.86; Fold greater potency compared to sesamin (IC50, minigenome) [8]: approximately 7 fold; IC50 [8]: 10.4 µM; Selective index SI, GFP Signal (FMDV Minigenome) [8]: 10.37 ± 1.01 (9.56 to 11.18) SI = 8.72; selectivity ratio [9]: 5.99; Selective index SI, Viral Copy Number (RT-qPCR) [6]: 36.70 ± 1.57 (36.06 to 37.34) SI = 2.46; inhibition at 40 µM ([6]; Foot-and-mouth disease virus, BHK-21, read-out: Inhibition of FMDV viral copy number): 50% |
| c1cc2c(cc1[C@H]1OC[C@H]3[C@@H]1CO[C@@H]3c1ccc3c(c1)OCO3)OCO2 [Sesamin] |  | 254.20 ± 2.40 µM | dose-dependent inhibition | 604.6 ± 2.78 µM | 53 µM | 60.9 µM | 82.4 µM | Toxicity to BHK-21 cells in words ([1]; at 100 µM): mild toxicity; Effect on FMDV 3C^pro activity [7]: Neither sesamin nor (-)-asarinin inhibited FMDV 3C^pro; Inhibition of influenza virus neuraminidase [10]: inhibited influenza virus neuraminidase; Cytotoxicity [11]: without exhibiting cytotoxicity; Inhibition of influenza A (H1N1) virus (reduced inflammatory cytokines) [11]: inhibit influenza A (H1N1) virus; Selective index SI, Normalized Delta Ct (RT-qPCR) [5]: 60.94 ± 1.79 (60.21 to 61.67) SI = 9.92; IC50 [8]: 74.9 µM; Selective index SI, GFP Signal (FMDV Minigenome) [8]: 74.89 ± 1.87 (73.39 to 76.39) SI = 8.07; selectivity ratio [9]: 11.4; Inhibition of FMDV viral copy number in words [6]: markedly significant inhibition; Selective index SI, Viral Copy Number (RT-qPCR) [6]: 82.43 ± 1.92 (81.65 to 83.21) SI = 7.33 |
| OC12COC(c3ccc4c(c3)OCO4)C1COC2c1ccc2c(c1)OCO2 (stereo not shown) [Paulownin] | mild toxicity | 147.00 ± 2.167 µM |  | 860.6 ± 2.93 µM |  |  |  |  |

Source: publication PMC12568301 (Veterinary Sciences, 2025)
